One block for each compound: values may come before it.
System: 475296-252-R-J1-PDC spheroid viability
Experiment: Anticancer human tumor 475296-252-R-J1-PDC patient-derived rectal carcinoma cell line growth inhibition [PI3K]
Details: spheroids with HUVEC and MSC; for IC50: curve of first compound; for viability, T/C: stronger effect = lower value
How it was run: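 Tumor cells grown as multi-cell spheroids with HUVEC endothelial cells and MSC fibroblast-like stroma were treated with targeted agents combined with inavolisib, alpelisib, duvelisib or copanlisib. Doses fell in half-log steps from near clinical Cmax, else from 10 microM. Viability was measured.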
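Note: spheroids exposed to agents for seven days before readout.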

- IC50 (second compound 0.0316 µM): > 10 µM
- IC50 (second compound 0.1 µM): > 10 µM
- IC50 (second compound 0.316 µM): > 10 µM
- IC50 (second compound 1 µM): > 10 µM
- IC50 (second compound 3.16 µM): > 10 µM
- IC50 (second compound 10 µM): > 10 µM
SMILES: CNC(=O)c1ccc(N2C(=S)N(c3ccc(C#N)c(C(F)(F)F)c3)C(=O)C2(C)C)cc1F + CC(Nc1ncnc2nc[nH]c12)c1cc2cccc(Cl)c2c(=O)n1-c1ccccc1
- viability, T/C (second compound 0.0316 µM, first compound 0.0316 µM): 90.9%
- viability, T/C (second compound 0.0316 µM, first compound 0.1 µM): 92.1%
- viability, T/C (second compound 0.0316 µM, first compound 0.316 µM): 107%
- viability, T/C (second compound 0.0316 µM, first compound 1 µM): 92.6%
- viability, T/C (second compound 0.0316 µM, first compound 3.16 µM): 101%
- viability, T/C (second compound 0.0316 µM, first compound 10 µM): 85.7%
- viability, T/C (second compound 0.1 µM, first compound 0.0316 µM): 97.6%
- viability, T/C (second compound 0.1 µM, first compound 0.1 µM): 99.6%
- viability, T/C (second compound 0.1 µM, first compound 0.316 µM): 93.4%
- viability, T/C (second compound 0.1 µM, first compound 1 µM): 109%
- viability, T/C (second compound 0.1 µM, first compound 3.16 µM): 109%
- viability, T/C (second compound 0.1 µM, first compound 10 µM): 106%
- viability, T/C (second compound 0.316 µM, first compound 0.0316 µM): 94.9%
- viability, T/C (second compound 0.316 µM, first compound 0.1 µM): 104%
- viability, T/C (second compound 0.316 µM, first compound 0.316 µM): 106%
- viability, T/C (second compound 0.316 µM, first compound 1 µM): 98.4%
- viability, T/C (second compound 0.316 µM, first compound 3.16 µM): 107%
- viability, T/C (second compound 0.316 µM, first compound 10 µM): 96.2%
- viability, T/C (second compound 1 µM, first compound 0.0316 µM): 97%
- viability, T/C (second compound 1 µM, first compound 0.1 µM): 92.1%
- viability, T/C (second compound 1 µM, first compound 0.316 µM): 102%
- viability, T/C (second compound 1 µM, first compound 1 µM): 92.4%
- viability, T/C (second compound 1 µM, first compound 3.16 µM): 99.2%
- viability, T/C (second compound 1 µM, first compound 10 µM): 99.7%
- viability, T/C (second compound 3.16 µM, first compound 0.0316 µM): 89.4%
- viability, T/C (second compound 3.16 µM, first compound 0.1 µM): 114%
- viability, T/C (second compound 3.16 µM, first compound 0.316 µM): 94%
- viability, T/C (second compound 3.16 µM, first compound 1 µM): 103%
- viability, T/C (second compound 3.16 µM, first compound 3.16 µM): 101%
- viability, T/C (second compound 3.16 µM, first compound 10 µM): 93.2%
- viability, T/C (second compound 10 µM, first compound 0.0316 µM): 103%
- viability, T/C (second compound 10 µM, first compound 0.1 µM): 92%
- viability, T/C (second compound 10 µM, first compound 0.316 µM): 93%
- viability, T/C (second compound 10 µM, first compound 1 µM): 96.6%
- viability, T/C (second compound 10 µM, first compound 3.16 µM): 107%
- viability, T/C (second compound 10 µM, first compound 10 µM): 109%

- IC50 (second compound 0.0316 µM): > 3 µM
- IC50 (second compound 0.1 µM): > 3 µM
- IC50 (second compound 0.316 µM): > 3 µM
- IC50 (second compound 1 µM): 2.91 µM
- IC50 (second compound 3.16 µM): 2.12 µM
- IC50 (second compound 10 µM): 1.21 µM
SMILES: Cn1cnc2c(F)c(Nc3ccc(Br)cc3Cl)c(C(=O)NOCCO)cc21 + CC(Nc1ncnc2nc[nH]c12)c1cc2cccc(Cl)c2c(=O)n1-c1ccccc1
- viability, T/C (second compound 0.0316 µM, first compound 0.00949 µM): 84.4%
- viability, T/C (second compound 0.0316 µM, first compound 0.03 µM): 84.9%
- viability, T/C (second compound 0.0316 µM, first compound 0.0949 µM): 81.6%
- viability, T/C (second compound 0.0316 µM, first compound 0.3 µM): 70.5%
- viability, T/C (second compound 0.0316 µM, first compound 0.949 µM): 63.1%
- viability, T/C (second compound 0.0316 µM, first compound 3 µM): 53.9%
- viability, T/C (second compound 0.1 µM, first compound 0.00949 µM): 95.8%
- viability, T/C (second compound 0.1 µM, first compound 0.03 µM): 85.5%
- viability, T/C (second compound 0.1 µM, first compound 0.0949 µM): 93.3%
- viability, T/C (second compound 0.1 µM, first compound 0.3 µM): 73.5%
- viability, T/C (second compound 0.1 µM, first compound 0.949 µM): 66.6%
- viability, T/C (second compound 0.1 µM, first compound 3 µM): 55.7%
- viability, T/C (second compound 0.316 µM, first compound 0.00949 µM): 90.7%
- viability, T/C (second compound 0.316 µM, first compound 0.03 µM): 92.9%
- viability, T/C (second compound 0.316 µM, first compound 0.0949 µM): 86.5%
- viability, T/C (second compound 0.316 µM, first compound 0.3 µM): 74.8%
- viability, T/C (second compound 0.316 µM, first compound 0.949 µM): 76.3%
- viability, T/C (second compound 0.316 µM, first compound 3 µM): 51.5%
- viability, T/C (second compound 1 µM, first compound 0.00949 µM): 95.7%
- viability, T/C (second compound 1 µM, first compound 0.03 µM): 95.7%
- viability, T/C (second compound 1 µM, first compound 0.0949 µM): 81.4%
- viability, T/C (second compound 1 µM, first compound 0.3 µM): 68.2%
- viability, T/C (second compound 1 µM, first compound 0.949 µM): 67.3%
- viability, T/C (second compound 1 µM, first compound 3 µM): 48.1%
- viability, T/C (second compound 3.16 µM, first compound 0.00949 µM): 94.2%
- viability, T/C (second compound 3.16 µM, first compound 0.03 µM): 92.9%
- viability, T/C (second compound 3.16 µM, first compound 0.0949 µM): 76%
- viability, T/C (second compound 3.16 µM, first compound 0.3 µM): 68.3%
- viability, T/C (second compound 3.16 µM, first compound 0.949 µM): 62.5%
- viability, T/C (second compound 3.16 µM, first compound 3 µM): 44.9%
- viability, T/C (second compound 10 µM, first compound 0.00949 µM): 100%
- viability, T/C (second compound 10 µM, first compound 0.03 µM): 95%
- viability, T/C (second compound 10 µM, first compound 0.0949 µM): 73.2%
- viability, T/C (second compound 10 µM, first compound 0.3 µM): 59.9%
- viability, T/C (second compound 10 µM, first compound 0.949 µM): 59.6%
- viability, T/C (second compound 10 µM, first compound 3 µM): 38.3%
